Experimental data as given in PMC11035632, “Discovery of gefitinib-1,2,3-triazole derivatives against lung cancer via inducing apoptosis and inhibiting the colony formation” (Scientific Reports, 2024).

Tests used:
NCI-H1299 cells = assay: CCK-8 assay for cell proliferation and cytotoxicity, NCI-H1299; assay type: cell-based; conditions: Homo sapiens, CCK-8, 48 h
Method: (§1) Three types of lung cells were seeded into 96-well plate at a density of 5 × 10^3 cells per well at logarithmic growth phase and cultured in 37 °C. […] After that, cell viability was determined according to the instruction of the CCK-8 assay. Next, 10 μL of CCK-8 solution was added to each well of the plate and incubate the plate for 1–4 h in the incubator. The absorbance was measured at 450 nm using a microplate reader (Bio-Tek). The percentage of viable cells was measured using the following formula where three independent experiments were performed: [(A450 sample − A450blank)/(A450 control − A450blank)] × 100%.

A549 cells = assay: CCK-8 assay for cell proliferation and cytotoxicity, A549; assay type: cell-based; conditions: Homo sapiens, CCK-8, 48 h
Method: A549 cells were cultured in a humidified incubator at 37 °C with 5% CO2 in Ham’s F-12 K (PM150910, Procell) supplemented with 10% FBS and 1% Penicillin Streptomycin.
as §1

NCI-H1437 cells = assay: CCK-8 assay for cell proliferation and cytotoxicity, NCI-H1437; assay type: cell-based; conditions: Homo sapiens, CCK-8, 48 h, read-out: IC50 1437
Method: as §1

L02 cells = assay: Cytotoxicity / survival rate in normal hepatocytes L02; assay type: cell-based; conditions: for Survival rate %, 48 h: L02 cells
H1299 cells [1] = assay: Flow cytometry detection of apoptosis (Annexin V-EGFP/PI); assay type: cell-based, human; conditions: 48 h
Method: H1299 cells were treated with different concentrations of 7a and 7j for 48 h. The cells were stained with Annexin-V and PI, and the proportion of apoptotic cells was detected using flow cytometry.
H1299 cells were seeded in a 6-well plate at a density of 1 × 10^5 cells/well and incubated for 24 h. On the following day, the medium was replaced with fresh medium containing 7a or 7j (2, 4 and 8 μmol/L) and cells were incubated for an additional 48 h. Cell apoptosis was detected using Annexin V-EGFP/PI apoptosis detection Kit by flow cytometry. Subsequently, 5 µl of […] Annexin V and 10 µl of PI was added to the cell suspension, gently vortexed, and incubated at room temperature in the dark for 20 min, then single-cell suspension was prepared followed by flow cytometry (BD Accuri™ C6 Plus).

H1299 cells [2] = assay: DAPI staining for cell apoptosis; assay type: cell-based, human; conditions: H1299, 2, 4 and 8 μmol/L, 48 h
Method: In order to further verify the apoptotic activity induced by 7a and 7j in lung cancer cells, H1299 cells were treated with different concentrations of compounds 7a and 7j for 48 h, followed by DAPI staining. […] As the drug concentration increased, nuclear staining intensified, and even nuclear condensation and fragmentation phenomena were observed.
H1299 (1.5 × 10^4 ~ 2 × 10^4 /well) cells were seeded in 24-well plates for 24 h, and then treated with 7a or 7j at the concentrations of 2,4 and 8 μmol/L for 48 h., the cells were fixed for 30 min at room temperature in 4% paraformaldehyde and washed 3 times in PBS. Finally, every well was stained with DAPI (10 µg/mL, C0065, Solarbio) at room temperature for 30 min, and washed at least three times in PBS. The fluorescence microscope was used to observe the morphological changes of cell nuclei.

H1299 cells [3] = assay: Wound healing assay; assay type: cell-based, human; conditions: 24 h
Method: H1299 cells were seeded in a 6-well plate, When the cell confluency reached 95%, a wound line was scratched using a 200 µl pipette tip, and then washed three times, fresh medium containing 7a or 7j (2, 4 and 8 μmol/L) was added, and the plate was incubated at 37 °C with 5% CO2. All the images were captured at 0 h and 24 h under an inverted microscope, and the quantification of scratches was analysed using Image J.

H1299 cells [4] = assay: Transwell migration assay; assay type: cell-based, human; conditions: H1299, 2, 4 and 8 μmol/L, 24 h, vs normal control, p < 0.01
Method: Transwell chamber migration assay is another important method to assess cell migration ability. Tumor cells are seeded in the chamber, and the number of tumor cells that pass through the membrane is counted to evaluate the migration ability of tumor cells.
Transwell assay was used to determine the migration ability of H1299 cells. Cells were starved in serum-free RPMI 1640 medium for 24 h, then detached and resuspended in serum-free RPMI 1640 medium. 5 × 10^5 cells/mL were inoculated into the upper chamber of a 24-well Transwell plate (Corning Inc., United States), with a volume of 100 µl per well. Then, 100 µL serum-free medium containing 7a or 7j (2, 4 and 8 μmol/L) was added to the upper chamber and the lower chamber was filled with 700 µL medium containing 20% FBS. After incubation for 24 h, H1299 cells on the upper membrane of the transwell were wiped off. The migrated cells were treated with 4% paraformaldehyde for 20 min, stained with 0.1% crystal violet for 20 min and washed three times with PBS. The number of H1299 cells that migrated to the underside of the membrane was counted under the inverted fluorescence microscope. Three randomly selected areas from each transwell were photographed and calculated using Image J.

H1299 cells [5] = assay: Colony formation assay; assay type: cell-based, human; conditions: 7 days
From the text: The colony formation assay is an important method for evaluating the ability of adherent cells to proliferate and form colonies on a plate, and it is widely used to assess cell proliferation. We also employed the colony formation assay to further confirm that compounds 7a and 7j can inhibit the proliferation of lung cancer cells, as shown in Fig. 5. After treating lung cancer cells with low, medium, and high concentrations (1, 2, 4 μmol/L) of compounds for 7 days, the number of cell colonies was counted to analyze the proliferation inhibition rate.
H1299 cells were seeded in six-well plates at a density of 500 cells per well and treated with 7a or 7j (1, 2 and 4 μmol/L) for 7 days. Then, cells were per-fixed with 4% paraformaldehyde for 30 min, stained with 0.1% Crystal violet for 15 min, and then washed with pure water. Taking a picture after the plates were air-dry. The clone formations number was counted with Image J.

[6] = tested on: Bcl-2, caspase9, Cleaved-Caspase3, Cleaved-PARP, MMP9 in H1299 cells; assay: Western blot of apoptosis- and migration-related proteins; assay type: cell-based, human; conditions: H1299, 4, 8 or 16 μM, 48 h
From the text: We conducted an in-depth investigation into the mechanism of apoptosis induced by compounds 7a and 7j. The Bcl-2 protein family is located upstream of the apoptosis signaling pathway. Bcl-2 proteins play an anti-apoptotic role by inhibiting the release of cytochrome C (cyt-c) from mitochondria. Previous literature reports that many anticancer drugs induce apoptosis by downregulating Bcl-2 expression. During apoptosis, the expression of Bcl-2 is inhibited, cyt-c is released, and it binds with the apoptotic protease activation factor to form the apoptosome. This triggers a cascade reaction of Caspase family proteins, with apoptosome promoting the activation of Caspase9. Activated Caspase9 then activates Caspase3, forming the Caspase3 cleavage body, which further activates downstream PARP protein, ultimately promoting cell apoptosis. […] After treating H1299 cells with different concentrations of compounds for 48 h, cell proteins were extracted, and western blot was used to detect the expression changes of apoptosis-related proteins.
Firstly, H1299 cells were treated with different concentrations concentrations of 7a and 7j at 4, 8 and 16 μmol/L for 48 h, cells were harvested using RIPA lysate (R0010, Solarbio) and centrifuged at 12,000 rpm for 15 min at 4 °C, and then the concentration of total protein was measured and taken from the supernatant. Protein was separated by 12% SDS–polyacrylamide gel electrophoresis and transferred to nitrocellulose filter membrane. after blocking in 5% milk for 2 h, the membranes were incubated with specific primary antibody at 4 °C overnight. Next day, NC membranes were incubated for 1 h at room temperature with appropriate secondary antibodies, and then Protein bands was visualizing by chemiluminescence detection (ECL kit, Genview).

COc1cc2ncnc(Nc3cccc(-c4cn(Cc5ccc(Br)cc5F)nn4)c3)c2cc1OCCCN1CCOCC1 [Compound 7b]
IC50 (NCI-H1299 cells): 4.6 ± 0.16 µM | IC50 (A549 cells): 5.28 ± 0.2 µM | IC50 (NCI-H1437 cells): 3.65 ± 0.04 µM

COc1cc2ncnc(Nc3cccc(-c4cn(Cc5ccc(Cl)c(F)c5)nn4)c3)c2cc1OCCCN1CCOCC1 [Compound 7c]
IC50 (NCI-H1299 cells): 6.24 ± 0.32 µM | IC50 (A549 cells): 5.68 ± 0.14 µM | IC50 (NCI-H1437 cells): 3.08 ± 0.47 µM

COc1cc2ncnc(Nc3cccc(-c4cn(Cc5c(F)cccc5Cl)nn4)c3)c2cc1OCCCN1CCOCC1 [Compound 7d]
IC50 (NCI-H1299 cells): 6.04 ± 0.41 µM | IC50 (A549 cells): 8.5 ± 0.41 µM | IC50 (NCI-H1437 cells): 4.83 ± 0.16 µM

COc1cc2ncnc(Nc3cccc(-c4cn(Cc5ccccc5[N+](=O)[O-])nn4)c3)c2cc1OCCCN1CCOCC1 [Compound 7e]
IC50 (NCI-H1299 cells): 5.81 ± 0.12 µM | IC50 (A549 cells): 4.38 ± 0.07 µM | IC50 (NCI-H1437 cells): 2.22 ± 0.18 µM

COc1cc2ncnc(Nc3cccc(-c4cn(Cc5ccc([N+](=O)[O-])cc5)nn4)c3)c2cc1OCCCN1CCOCC1 [Compound 7f]
IC50 (NCI-H1299 cells): 5.65 ± 0.16 µM | IC50 (A549 cells): 16.4 ± 1.07 µM | IC50 (NCI-H1437 cells): 3.95 ± 0.45 µM

COc1cc2ncnc(Nc3cccc(-c4cn(Cc5ccccc5F)nn4)c3)c2cc1OCCCN1CCOCC1 [Compound 7g, N-(3-(1-(2-fluorobenzyl)-1H-1,2,3-triazol-4-yl)phenyl)-7-methoxy-6-(3-morpholinopropoxy)quinazolin-4-amine]
IC50 (NCI-H1299 cells): 5.97 ± 0.36 µM | IC50 (A549 cells): 6.23 ± 0.12 µM | IC50 (NCI-H1437 cells): 1.66 ± 0.18 µM

COc1cc2ncnc(Nc3cccc(-c4cn(Cc5ccc(C(F)(F)F)cc5)nn4)c3)c2cc1OCCCN1CCOCC1 [Compound 7h]
IC50 (NCI-H1299 cells): 4.89 ± 0.16 µM | IC50 (A549 cells): 7.13 ± 1.21 µM | IC50 (NCI-H1437 cells): 5.21 ± 0.3 µM

COc1cc2ncnc(Nc3cccc(-c4cn(Cc5ccc(I)cc5)nn4)c3)c2cc1OCCCN1CCOCC1 [Compound 7i]
IC50 (NCI-H1299 cells): 5.6 ± 0.09 µM | IC50 (A549 cells): 5.76 ± 0.62 µM | IC50 (NCI-H1437 cells): 4.69 ± 0.23 µM

COc1cc2ncnc(Nc3cccc(-c4cn(Cc5cccc(Cl)c5)nn4)c3)c2cc1OCCCN1CCOCC1 [Compound 7j]
IC50 (NCI-H1299 cells): 3.84 ± 0.22 µM | IC50 (A549 cells): 3.86 ± 0.38 µM | IC50 (NCI-H1437 cells): 1.69 ± 0.25 µM | IC50 (L02 cells; Homo sapiens, normal hepatocytes L02): 17.7 ± 0.52 µM | Survival rate %, 48 h (L02 cells; 2 μM): 94.49 ± 4.11% | Survival rate %, 48 h (L02 cells; 4 μM): 89.12 ± 5.50% | Survival rate %, 48 h (L02 cells; 8 μM): 75.59 ± 2.65% | Survival rate %, 48 h (L02 cells; 16 μM): 59.14 ± 1.54% | Survival rate %, 48 h (L02 cells; 32 μM): 24.48 ± 3.68% | total apoptotic cell proportion (H1299 cells [1]; H1299, 2 μmol/L): 14.97 ± 1.54% | total apoptotic cell proportion (H1299 cells [1]; H1299, 4 μmol/L): 27.07 ± 2.77% | total apoptotic cell proportion (H1299 cells [1]; H1299, 8 μmol/L): 65.77 ± 2.93% | apoptotic morphology by DAPI staining (H1299 cells [2]): exhibited typical apoptotic features | migration closure rate (H1299 cells [3]; H1299, 2 μmol/L): 72.57 ± 3.43% | migration closure rate (H1299 cells [3]; H1299, 4 μmol/L): 60.91 ± 8.48% | migration closure rate (H1299 cells [3]; H1299, 8 μmol/L): 48.88 ± 3.23% | number of cells passing through the membrane to the lower surface of the chamber (H1299 cells [4]): significantly decreased | formation of H1299 cell colonies (H1299 cells [5]; 1 μmol/L): markedly inhibit | colony formation (H1299 cells [5]; H1299, 4 μmol/L): almost completely suppressed | Bcl-2 protein expression level [6]: decrease | Cleaved-Caspase3 protein expression level [6]: increased | Cleaved-PARP protein expression level [6]: increased | MMP9 protein expression [6]: downregulated | caspase9 protein expression level [6]: decrease
